# Test results published in PubChem BioAssay (NCI).
#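 Test compounds were applied to cells in 96-well plates for 48 hours at 5 doses. Here, GI50 denotes the concentration required for 50% inhibition of growth. TGI: total growth inhibition.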
# Assays:
# Assay in all cases: growth of human tumour cells (NCI), 48 h
# A549 NSCLC = system: A549 NSCLC
# SR leukemia = system: SR leukemia
# SNB-19 CNS = system: SNB-19 CNS
# OVCAR-3 ovarian = system: OVCAR-3 ovarian
# HT29 colon = system: HT29 colon
# HCT-15 colon = system: HCT-15 colon
# MDA-MB-435 = system: MDA-MB-435
# SK-OV-3 ovarian = system: SK-OV-3 ovarian
# SW-620 colon = system: SW-620 colon
# OVCAR-4 ovarian = system: OVCAR-4 ovarian
# A498 renal = system: A498 renal
# MCF7 breast = system: MCF7 breast
# SF-295 CNS = system: SF-295 CNS
# TK-10 renal = system: TK-10 renal
# SF-268 CNS = system: SF-268 CNS
# 786-0 renal = system: 786-0 renal
# COLO 205 colon = system: COLO 205 colon
# K-562 leukemia = system: K-562 leukemia
# HS 578T breast = system: HS 578T breast
# NCI-H226 lung = system: NCI-H226 lung
# HCT-116 colon = system: HCT-116 colon
# IGROV1 ovarian = system: IGROV1 ovarian
# SF-539 CNS = system: SF-539 CNS
# NCI-H460 lung = system: NCI-H460 lung
# PC-3 prostate = system: PC-3 prostate
# SK-MEL-28 melanoma = system: SK-MEL-28 melanoma
# SK-MEL-2 melanoma = system: SK-MEL-2 melanoma
# UO-31 renal = system: UO-31 renal
# RXF 393 renal = system: RXF 393 renal
structure (smiles),measurement,setting,value
O=S(=O)(Nc1ccc(Cl)c(F)c1)c1ccc(-c2cnc(C3CC3)o2)cc1,GI50,A549 NSCLC,825 nM
same,TGI,A549 NSCLC,14700 nM
same,GI50,SR leukemia,253 nM
same,TGI,SR leukemia,> 43000 nM
same,GI50,SNB-19 CNS,477 nM
same,TGI,SNB-19 CNS,14800 nM
same,GI50,OVCAR-3 ovarian,357 nM
same,TGI,OVCAR-3 ovarian,3480 nM
same,GI50,HT29 colon,339 nM
same,TGI,HT29 colon,5270 nM
same,GI50,HCT-15 colon,332 nM
same,TGI,HCT-15 colon,12600 nM
same,GI50,MDA-MB-435,85.3 nM
same,TGI,MDA-MB-435,484 nM
same,GI50,SK-OV-3 ovarian,887 nM
same,TGI,SK-OV-3 ovarian,18300 nM
same,GI50,SW-620 colon,374 nM
same,TGI,SW-620 colon,15000 nM
same,GI50,OVCAR-4 ovarian,1820 nM
same,TGI,OVCAR-4 ovarian,16200 nM
same,GI50,A498 renal,232 nM
same,TGI,A498 renal,922 nM
same,GI50,MCF7 breast,284 nM
same,TGI,MCF7 breast,13400 nM
same,GI50,SF-295 CNS,324 nM
same,TGI,SF-295 CNS,2990 nM
same,GI50,TK-10 renal,1550 nM
same,TGI,TK-10 renal,12700 nM
same,GI50,SF-268 CNS,1030 nM
same,TGI,SF-268 CNS,20100 nM
same,GI50,786-0 renal,535 nM
same,TGI,786-0 renal,16200 nM
same,GI50,COLO 205 colon,651 nM
same,TGI,COLO 205 colon,9700 nM
same,GI50,K-562 leukemia,210 nM
same,TGI,K-562 leukemia,> 65300 nM
same,GI50,HS 578T breast,355 nM
same,TGI,HS 578T breast,8560 nM
same,GI50,NCI-H226 lung,1250 nM
same,TGI,NCI-H226 lung,16500 nM
same,GI50,HCT-116 colon,382 nM
same,TGI,HCT-116 colon,12700 nM
same,GI50,IGROV1 ovarian,556 nM
same,TGI,IGROV1 ovarian,15200 nM
same,GI50,SF-539 CNS,354 nM
same,TGI,SF-539 CNS,2780 nM
same,GI50,NCI-H460 lung,413 nM
same,TGI,NCI-H460 lung,11600 nM
same,GI50,PC-3 prostate,516 nM
same,TGI,PC-3 prostate,13900 nM
same,GI50,SK-MEL-28 melanoma,1580 nM
same,TGI,SK-MEL-28 melanoma,17400 nM
same,GI50,SK-MEL-2 melanoma,603 nM
same,TGI,SK-MEL-2 melanoma,18900 nM
same,GI50,UO-31 renal,855 nM
same,TGI,UO-31 renal,11900 nM
same,GI50,RXF 393 renal,282 nM
same,TGI,RXF 393 renal,2750 nM
